Laboratory results as given in patent publication US20100105766A1, “COMPOSITION FOR INHIBITION OR PREVENTION OF BONE DENSITY REDUCTION” (Kirin Beer Kabushiki Kaisha, priority 2003, published 2010).
Entries after “also recorded” stand apart in the source; their conditions may differ.

Tests used:
[1] = system: ovariectomized female SD rats; assay: Amelioration of bone mineral density reduction after removal of ovaries (pQCT, femur), test 4; type: in vivo, rat; details: oral 10 ml/kg once a day for 28 days, concentrations equal to those in beer (isoxanthohumol also 5-fold and 20-fold)
Protocol: Ovaries on both sides of 9-week old female SD rats were removed, and, from the next day of the ovary removal, the test compound was orally administered into the stomach through a stomach tube (liquid amount 10 ml/kg) once a day for 28 days.
(§1) For the control group and sham operation group, the 0.8% aqueous ethanol solution was orally administered in the same manner as in the test compound administration group. 17β-Estradiol was provided as a positive control and was subcutaneously administered at a dose of 4 μg/kg/day.
Beer (domestically produced pilsner beer) contained 2.1 mg/L isoxanthohumol and 43 μg/L 8-prenylnaringenin. Here this beer was once lyophilized and was then dissolved in water to remove ethanol to give a test compound which was then used in the test.
Isoxanthohumol was dissolved in a 0.8% aqueous ethanol solution so that, as compared with the concentration of isoxanthohumol contained in beer, the resultant solutions had 1-fold, 5-fold and 20-fold isoxanthohumol concentrations. […]
The bone mineral density was measured by dissecting the femur of rats and identifying the cancellous bone mineral density at the distal metaphysis bone end with a pQCT (Peripheral Quantitative computed tomography) bone mineral density measuring apparatus (XCT-960A, manufactured by Norland Stratec).

[2] = system: bone resorption; details: in vitro experiment, reported in the literature; cited from earlier work
[3] = system: young Wistar female rats; assay: In vivo estrogen activity in immature rats (uterine weight), test 3-a; design: species or system rat; details: oral 1, 5 or 25 mg/kg/day once a day for 3 days
Protocol: In vivo estrogen activity was evaluated using young Wistar female rats. The rats used were provided as follows. At the outset, 20-day old Wistar female rats (available from Charles River Japan, Inc.) were selected so that the difference in body weight among the animals was within ±10% of the average body weight. Thereafter, the animals were randomly grouped so that each group consisted of 6 animals. The animals were reared with free feeding of water and AlN-76A (manufactured by CLEA JAPAN INC.).
After preliminary rearing for one day, isoxanthohumol or 8-prenylnaringenin was forcibly orally administered into the stomach through a stomach tube at a dose of 1, 5, or 25 mg/kg/day (liquid amount 10 ml/kg) once a day for 3 days. For the control group, a solvent (peanut oil) was orally administered in the same manner as described, and for the positive control, 17β-estradiol was provided and was orally administered at a dose of 400 μg/kg/day in the same manner as described above. About 24 hr after the final administration, the uterine was harvested from the rats, and the weight of the uterine was measured to measure the in vivo estrogen activity.

[4] = system: ovariectomized female SD rats; assay: In vivo estrogen activity in ovariectomized rats (uterine weight), test 3-b; design: species or system rat
Protocol: Ovaries on both sides of 9-week old female SD rats (available from Charles River Japan, Inc.) were removed, and the rats were randomly grouped so that each group consisted of 6 animals. The animals were reared with free feeding of water and AlN-76A (manufactured by CLEA JAPAN INC.). From the next day of the operation, the test compound was forcibly orally administered into the stomach through a stomach tube (liquid amount 10 ml/kg) once a day for 28 days.
as §1, with “Isoxanthohumol was dissolved in a 0.8% aqueous ethanol solution so that, as compared with the concentration of isoxanthohumol contained in beer, the resultant solutions had 1-fold, 5-fold and 20-fold isoxanthohumol concentrations. For” for “For”, “2” for “4”

[5] = system: estrogen-responsive human breast cancer-derived MCF-7 cells; assay: Estrogen activity measured by cell growth of MCF-7 cells (Cell Counting Kit); type: cell-based; details: for estrogen activity compared with the activity of estradiol: MCF-7 cell growth, relative to 17β-estradiol; for estrogen activity (cell growth of MCF-7 cells as index): 7 days of culture, absorbance at 450 nm
Protocol: The estrogen activity of the test compound was measured using as an index cell growth of estrogen-responsive human breast cancer-derived MCF-7 cells. The cell line used is one that expressed an estrogen receptor and enhanced cell growth in the presence of an estrogen-like substance. Therefore, the estrogen activity was measured by measuring the cell growth of the cell line with Cell Counting Kit (manufactured by DOJINDO LABORATORIES).
The measurement of cell growth of MCF-7 cells with the Cell Counting Kit was carried out by measuring the absorbance at 450 nm of formazane produced from a WST-1 reagent ([…], monosodium salt) incorporated in cells with a microplate reader (SOFTmax (manufactured by Molecular Devices Corporation)).
More specifically, MCF-7 cells were precultured for 3 days in a DMEM medium containing 10% of fetal calf serum (manufactured by Gibco), which had been treated using Dextran-Coated Charcoal (manufactured by Sigma) for adsorbing and removing endogenous steroids, and further containing penicillin and streptomycin (each 10000 units, 1 mg/ml, manufactured by Gibco), 0.1 mM nonessential amino acid (manufactured by Gibco), 1 mM sodium pyruvate (manufactured by Gibco), and 1 μg/ml insulin (human recombinant 27.5 USP unit/mg: (manufactured by Sigma)). A cell suspension having an MCF-7 cell concentration of 8×10^4 cells/ml was prepared and was seeded on a 96 well plate in an amount of 100 μl/well. One day after the initiation of the culture, the medium in the wells was replaced by a medium containing a test compound (0.1% (v/v)) dissolved in dimethylsulfoxide, and culture was continued. On the fourth day of the culture, the medium in the wells was again replaced by a fresh medium containing the test compound. On the seventh day of the culture, the cell growth was measured with Cell Counting Kit.
For purified isoxanthohumol and chemically synthesized 8-prenylnaringenin, the estrogen activity was measured in the same manner as in test 1, except that the concentrations of the test compound in the medium for MCF-7 cell culture were set as follows.
Isoxanthohumol was added so that the concentration of isoxanthohumol in the medium was 1.0×10^−5, 1.0×10^−6, 1.0×10^−7, 1.0×10^−8, 1.0×10^−9, and 1.0×10^−10 mol/L.

COc1cc(O)c(CC=C(C)C)c(O)c1C(=O)/C=C/c1ccc(O)cc1 [xanthohumol, reference compound]
amelioration of cancellous bone mineral density reduction in the femur [1]: any activity as in isoxanthohumol was not observed
bone resorption inhibitory effect [2]: proven to have bone resorption inhibitory effect

Humulons
bone resorption inhibitory effect [2]: proven to have bone resorption inhibitory effect

COc1cc(O)c(CC=C(C)C)c2c1C(=O)CC(c1ccc(O)cc1)O2 (stereo not drawn) [isoxanthohumol]
in vivo estrogen activity (uterine weight increasing activity) [3]: did not have in vivo estrogen activity for immature rats or had only a very low level of activity; also recorded: did not exhibit uterine weight increasing activity; also recorded: uterine hypertrophy action was not observed
dose without uterine weight increasing activity relative to the dose that exhibited bone mineral density reduction inhibitory activity [4]: 20 times
in vivo estrogen activity (recovery of uterine weight) ([4]; oral 10 ml/kg once a day for 28 days, 1-fold, 5-fold and 20-fold the concentration in beer): significant recovery of the weight of the uterine was not observed; also recorded: did not exhibit uterine weight increasing activity
amelioration of cancellous bone mineral density reduction in the femur [1]: confirmed to be effective; also recorded: better than the effect of xanthohumol; also recorded: significantly ameliorated; also recorded: significantly improved a bone mineral density reduction
estrogen activity compared with the activity of estradiol [5]: about 10^−5 time
estrogen activity (cell growth of MCF-7 cells as index) [5]: had estrogen activity; also recorded: has estrogen activity

CC(C)=CCc1c(O)cc(O)c2c1O[C@H](c1ccc(O)cc1)CC2=O [8-prenylnaringenin, reference compound]
amelioration of cancellous bone mineral density reduction in the femur [1]: This amelioration was not observed
estrogen activity compared with the activity of estradiol [5]: 10^−2 time
estrogen activity (cell growth of MCF-7 cells as index) [5]: had estrogen activity
